Drawing on a melting point compilation (Tetko et al.; mined from patent text by program, amines drawn as free bases though some values may be those of a salt), this text covers melting point for 89 compounds.

Molecules are shown by their SMILES.

In turn, `CCCCCC[C@@H]1C[C@H](c2ccc(O)cc2)C(=O)O1` had a melting point of 87 to 88 °C.

Compound `Cc1c(CNCC(C)(C)C)[nH]c2c(C)c(NC(=O)c3ccc(OC[C@@H]4CCCO4)cc3)ccc12` yielded a melting point of 178 to 179 °C.

In the case of `O=C(NCCCCCn1ccnc1)c1ccc(Cl)s1`, the melting point lay within 123 to 125 °C.

`COn1cc(C#N)c(C#N)c1-c1ccc(Cl)cc1`: the melting point is 126 to 127 °C.

`CC(=O)OC1CCc2c(C#N)cccc21` (centres undefined) gave a melting point of 65 °C.

As to `NN=C1C(=O)Nc2cccc(Cl)c21`, the melting point lay within 235 to 236 °C.

Consider `Oc1c(C23CC4CC(CC(C4)C2)C3)ccc2ccccc12`, for which the melting point lay within 209 to 210 °C.

For `CN1CCC(OC(c2cccc(C#CCCCN)c2)c2nc3ccccc3[nH]2)CC1` (centres undefined), the melting point stood at 82 °C.

In the case of `Cc1ccnc(C(=O)c2[nH]c3cc(Cl)ccc3c2NC(=O)C(C)(C)O)c1`, the melting point lay in the range of 217 to 219 °C.

With `CN1C(=O)C2C3CCC(C3)C2(c2ccc(N)cc2)C1=O` (centres undefined), the melting point lay within 131 to 133 °C.

As for `O=CN1CCC(Oc2c(F)c(F)c(F)c(F)c2F)CC1`, the melting point was 32 to 34 °C.

`O=c1c2c(Br)cc(Br)cc2n(Cc2ccccc2)c(=O)n1Cc1ccccc1`: the melting point lay within 169 to 172 °C.

In the case of `CC=C(C)C1CCC2C3CC(=O)C4=CC(=O)CCC4(C)C3CCC12C` (centres undefined), the melting point was in the range of 172 to 178 °C.

`O=C(c1cc(I)c(O)c(I)c1)c1c(Cc2ccccc2)oc2ccccc12` yielded a melting point of 153 to 154 °C.

`COc1ccc(CCC(O)=S)cc1[N+](=O)[O-]` returned a melting point of 130 to 132 °C.

In turn, `O=CNCCN1CCC(Nc2nc3ccccc3n2Cc2ccc(F)cc2)CC1` registered a melting point of 153 °C.

In turn, `COc1cc(Nc2c(C#N)cnc3cc(/C=C/CCCCCCCCCN4CCOCC4)c(OC)cc23)c(Cl)cc1Cl` showed a melting point of 98 to 99 °C.

Compound `O=C1CCC2(CCC(=O)c3ccccc32)C(=O)N1` (centres undefined) displayed a melting point of 197 to 199 °C.

Regarding `O=C(Nc1ccc(Cl)c(C(F)(F)F)c1)Nc1ccccc1P(=O)(O)O`, the melting point was 153 to 157 °C.

The compound `COc1ccccc1CN[C@H]1CCCN(Cc2ccccc2)[C@H]1c1ccccc1` (relative stereo) returned a melting point of 68 to 70 °C.

Regarding `CCOc1cc2ncc(C#N)c(CC(=O)c3ccc(Br)cc3)c2cc1OCC`, the melting point lay in the range of 210 to 213 °C.

In turn, `COc1ccc2cc(-n3c(=O)[nH]c4ccccc43)cc(C)c2n1` displayed a melting point of 280 °C.

Take `CCOC(=O)c1cnn2c1c(OCCCN(C)C)nc1ccccc12`: the melting point fell in the range of 78 to 81 °C.

`CCc1cccc(C)c1CNc1cc(Cl)nc(Cl)c1[N+](=O)[O-]` yielded a melting point of 118 to 121 °C.

Compound `O=C(O)COc1cc(Cl)ccc1C(=O)NCc1cccc([N+](=O)[O-])c1` had a melting point of 200 °C.

Regarding `Cc1cccc(C)c1N(CCCC(=O)O)C(=O)CN(C(=O)c1ccc(Cl)cc1)c1c(C)cccc1C`, the melting point fell in the range of 214 to 216 °C.

In the case of `COc1cc(N(C)C)ccc1C=Nc1cc(Cl)c(N=CN(C)C)c(Cl)c1`, the melting point lay within 137 to 139 °C.

As for `O=C(O)CCC(=O)c1ccc(Oc2ccc(NC(=O)c3ccc(Cl)c(Cl)c3)cc2F)cc1`, the melting point lay within 205 to 208 °C.

In turn, `CS(=O)(=O)c1nc(Cl)c(Cc2ccccc2)c(N2CCCC2)n1` came in with a melting point of 136 to 138 °C.

With `CC1=Nc2c(C)nn(C)c2C2=NCCN12`, the melting point fell in the range of 174 to 177 °C.

`O=c1c2ccccc2c(Br)c(Br)c2ccc(Br)cc12` showed a melting point of 173 to 175 °C.

As to `COC(=O)C1=C(C)NC2=C(C(=O)CN(Cc3ccccc3)C2)C1c1ccccc1C(F)(F)F` (centres undefined), the melting point lay in the range of 225 to 227 °C.

Compound `Clc1ccc(Oc2c(-c3ccco3)sc3cnccc23)cc1` had a melting point of 75 to 77 °C.

The compound `COC(=O)NC1=NCC(c2ccc(OC(C)C)cc2)N1C` (centres undefined) registered a melting point of 135 to 138 °C.

On to `CCOC(=O)c1cccn2c(S(=O)(=O)Cl)c(C)nc12`, for which the melting point lay within 182 to 183 °C.

Regarding `CCCc1nc2c(N)nc(Cl)c(C)c2n1CCOCCN`, the melting point lay within 158 to 161 °C.

As for `Cn1c(=O)oc2cc3c(cc21)OCC31C(=O)N(Cc2ccc(C(F)(F)F)o2)c2ccccc21` (centres undefined), the melting point fell in the range of 198 to 199 °C.

In turn, `N#CCCN(C(N)=O)C1CCCCC1` displayed a melting point of 110 to 112 °C.

Regarding `CCCNC(=O)C1(O)CC(O)C2OC(C)(C)OC2C1` (centres undefined), the melting point lay in the range of 85 to 86 °C.

`Cc1ccc2c(c1)C=Cc1cc(C)ccc1C2c1cn(-c2ccnc(NCC(=O)Nc3nc(CC(=O)O)cs3)n2)c(=O)[nH]c1=O` registered a melting point of 223 °C.

Consider `CCOc1ccc2c(c1)n(C1CCCCC1)c(=O)n2S(=O)(=O)c1ccc(C(=O)Nc2nccs2)cc1OC`, for which the melting point stood at 213 °C.

In turn, `O=C(NN=Cc1ccc2ccccc2n1)c1ccccc1[N+](=O)[O-]` displayed a melting point of 195 to 196 °C.

Compound `CCOC(=O)c1cn(CCCl)c2nc(N3CCN(C)CC3)ncc2c1=O` registered a melting point of 154 to 155 °C.

With `Cc1ccc(O)c(Cn2c(NCCCN3CCOCC3)nc3ccc(Cc4c(C)cc(NCCO)cc4C)cc32)n1`, the melting point was found to be 162 °C.

Compound `Cc1[nH]c(C(C)(C)C)nc1CO` yielded a melting point of 196 °C.

In turn, `COc1ccc(-c2c(C(=O)CC(C)C)c(CSc3nccn3C)nc3cc(OC)c(OC)cc23)cc1OC` gave a melting point of 152 to 153 °C.

`Nc1ncc(Cc2ccc3c(c2)OCO3)c(N)n1` registered a melting point of 248 to 255 °C.

In turn, `O=C(O)CCC(=O)NC1CCCCC1` yielded a melting point of 168 to 170 °C.

With `c1c(N2CCCC2)nc(N2CCCC2)nc1N1CCN(CCN2CCNCC2)CC1`, the melting point lay in the range of 148 to 149 °C.

In the case of `O=c1ccn(-c2ccc([N+](=O)[O-])cc2)c(=O)[nH]1`, the melting point is above 300 °C.

Compound `COc1ccn2nc(S(=O)(=O)Cl)nc2n1` had a melting point of 110 to 112 °C.

The compound `CC1Cc2cc3c(cc2C(C=Cc2ccc(N)cc2)=NN1)OCO3` (centres undefined) gave a melting point of 159 to 161 °C.

Compound `CN1C(=O)C(=O)NCC1(CCOC1CCCCO1)c1ccc(Cl)c(Cl)c1` (centres undefined) showed a melting point of 260 °C.

Regarding `CS(=O)(=O)c1ccc(C(=O)O)c(Cl)c1F`, the melting point came out at 204 °C.

Compound `CCN1CCN(C(=O)NC(C(=O)O)c2cc(OC(C)=O)c(OC(C)=O)cc2F)C(=O)C1=O` (centres undefined) registered a melting point of 177 to 179 °C.

`CN(C)CCCC(N)=S` displayed a melting point of 77 °C.

As to `COC(=O)C=Cc1cc2ccccc2o1`, the melting point lay in the range of 84 to 86 °C.

On to `Nc1ccccc1NC(=O)/C=C/c1ccccc1I`, for which the melting point lay in the range of 194 to 196 °C.

As to `CCC1(O)CC2CC[C@]1(CS(=O)(=O)N1CCC3(C=Cc4ccccc43)CC1)C2(C)C` (some centres undefined), the melting point was in the range of 171 to 173 °C.

Regarding `C(#Cc1cccs1)C1=CCN(Cc2c[nH]c3ncccc23)CC1`, the melting point fell in the range of 191 to 193 °C.

Regarding `CC(C)(C)NS(=O)(=O)c1c(S)cccc1C(F)(F)F`, the melting point worked out at 139 °C.

As for `O=C(CCCCNCCOc1cccc2cccnc12)NC1CCCCC1`, the melting point lay within 113 to 119 °C.

`COc1ccc(CCCN2C=CC=C3C2=Nc2cc(C)ccc2S(=O)(=O)N3C)cc1` yielded a melting point of 130 to 131 °C.

In turn, `CCCCc1nc2cccc(CO)c2n1Cc1ccc(-c2ccccc2C#N)cc1` had a melting point of 203 to 204 °C.

In the case of `CC(C)C(NC(=O)c1ccc(C(=O)NCC(=O)OCc2ccccc2)cc1)C(=O)N1CCCC1C(=O)NC(C(=O)C(F)(F)F)C(C)C` (mixture of isomers), the melting point was 77 to 78 °C.

`Cc1oncc1C(=O)Nc1ccc(-n2nc(C(F)(F)F)cc2C2CC2)cc1` showed a melting point of 90 to 95 °C.

`N=C(Nc1cccc(NC(=O)C=Cc2ccccc2)c1)c1ccccc1` displayed a melting point of 115 to 117 °C.

`CCN(CC)C(=O)CC(=O)CC(=O)/C=C/c1c(C2CC2)nc2ccccc2c1-c1ccc(F)cc1` had a melting point of 97 to 105 °C.

Regarding `O=C(O)C(Cc1ccccc1)Oc1ccc2cc(-c3cnc(-c4cn(Cc5ccccc5)c5ccccc45)o3)ccc2c1` (centres undefined), the melting point fell in the range of 125 to 127 °C.

`CC(C)(C)Cc1c(CC(C)(C)C(=O)O)n(Cc2ccc(Cl)cc2)c2ccc(OCc3ccc4scc(Cl)c4n3)cc12` yielded a melting point of 185 to 186 °C.

On to `CC1(C)CN(CC2Cc3nccnc3C2)c2nc(-c3ccncn3)cc(=O)n2C1`, for which the melting point lay within 193 to 195 °C.

As for `Cc1cc(Br)cc2ccc(Cl)nc12`, the melting point was in the range of 114 to 116 °C.

`CCCS(=O)(=O)Nc1c(C)cc(OC(=O)NC)cc1C`: the melting point lay in the range of 173 to 176 °C.

The compound `CCCc1c(OCCCOc2cc(NC(=O)C(=O)O)c(C)cc2Cl)ccc(C(C)=O)c1O` gave a melting point of 188 to 189 °C.

`CCOC(=O)c1cc2c(C(F)(F)F)ccc3c2n1CCN3C` displayed a melting point of 91 to 92 °C.

As to `CCS(=O)(=O)c1ccc2cc(C(=O)O)ccc2c1`, the melting point came to 241 °C.

`CCSc1cn(-c2ccccn2)c2c1C(=O)CC(C)(C)C2` showed a melting point of 158 to 159 °C.

Consider `Fc1ccc2c(C3CCN(CCc4ccccc4)CC3)n[nH]c2c1`, for which the melting point was 163 to 165 °C.

For `O=C(NCc1ccc([N+](=O)[O-])cc1)c1ccc2cccnc2c1O`, the melting point is 210 to 212 °C.

`CN1CCCc2cc(OC(=O)Nc3ccc(Cl)c(C(F)(F)F)c3)ccc21` registered a melting point of 152 °C.

In turn, `c1ccc(CNc2nc(-c3ccco3)nc3ccccc23)cc1` showed a melting point of 152 to 154 °C.

In turn, `C=C(COC(=O)CCCCCCBr)COC(=O)NCCCCCCCCCCCCCCCCCC` yielded a melting point of 49 °C.

For `COc1ccc(CCc2c(Cc3ccccc3)sc3ccccc23)cc1`, the melting point fell in the range of 68 to 70 °C.

In the case of `CCC(O)(CC)c1ccc(-c2ccc(OCc3ccc(CO)c(CO)c3)cc2)c(C)c1`, the melting point was 97 °C.

The compound `Nc1nc2ccccc2c2sc(C=Cc3ccccc3)nc12` registered a melting point of 239 to 241 °C.

With `COC(c1cc(C)c(OCC(=O)O)c(C)c1)(C(F)(F)F)C(F)(F)F`, the melting point lay within 105 to 108 °C.

With `CCN(CC)CCNC(=O)c1cc(Cl)c(N)cc1OCCS(=O)CC` (centres undefined), the melting point was in the range of 92 to 94 °C.

As to `CCOn1c(C(F)(F)F)nc2c([N+](=O)[O-])cc(C(F)(F)F)cc21`, the melting point lay within 94 to 96 °C.

For the compound `N=C(N)COc1cccc(Cl)c1Cl`, the melting point is 104 to 108 °C.
